Measured values taken from PubChem BioAssay (NCI).
Several values for one entry are separate records, joined by “and”; a condition that tells them apart may be missing. Equal values may be shown once.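 Protocol summary: plate cells (96-well), add compound at 5 concentrations, incubate 48 h, interpolate endpoints linearly. GI50: concentration for 50% inhibition of growth. Definition used: TGI = concentration required for complete inhibition of growth.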

Experiments:
Test in all cases: inhibition of tumour cell growth, NCI panel, 48 h
RPMI-8226 leukemia = system: RPMI-8226 leukemia
NCI/ADR-RES ovarian = system: NCI/ADR-RES ovarian
HOP-92 NSCLC = system: HOP-92 NSCLC
HCT-15 colon = system: HCT-15 colon
SNB-75 CNS = system: SNB-75 CNS
IGROV1 ovarian = system: IGROV1 ovarian
OVCAR-8 ovarian = system: OVCAR-8 ovarian
KM12 colon = system: KM12 colon
SK-MEL-5 melanoma = system: SK-MEL-5 melanoma
UACC-257 melanoma = system: UACC-257 melanoma

Compound	GI50 (RPMI-8226 leukemia)	TGI (RPMI-8226 leukemia)	GI50 (NCI/ADR-RES ovarian)	TGI (NCI/ADR-RES ovarian)	GI50 (HOP-92 NSCLC)	TGI (HOP-92 NSCLC)	GI50 (HCT-15 colon)	TGI (HCT-15 colon)	GI50 (SNB-75 CNS)	TGI (SNB-75 CNS)	GI50 (IGROV1 ovarian)	TGI (IGROV1 ovarian)	GI50 (OVCAR-8 ovarian)	TGI (OVCAR-8 ovarian)	GI50 (KM12 colon)	TGI (KM12 colon)	GI50 (SK-MEL-5 melanoma)	TGI (SK-MEL-5 melanoma)	GI50 (UACC-257 melanoma)	TGI (UACC-257 melanoma)
N#Cc1cnc(Nc2cc(NC[C@H]3CNCCO3)c(C(F)(F)F)cn2)cn1	15.7 µM	56.3 µM	1.73 µM	84.5 µM	8.95 µM	26.6 µM	11 µM	> 100 µM	11.5 µM	28.1 µM	5.57 µM	70.6 µM	3.69 µM	93 µM	11.4 µM	88.4 µM	9.3 µM	21.6 µM	19.3 µM	45.8 µM
CCc1nc2ccc(N=Nc3c(O)ccc4ccccc34)cc2[nH]1		> 78 µM		54.8 µM		42.7 µM		33.4 µM		37.5 µM		36.8 µM		21.6 µM		31.9 µM		40 µM		29.4 µM
CCCCCCCCCCCCOC1C(CNC(=O)C2OC3OC(C)(C)OC3C2NC(=O)CN2CCN(c3ccc(OC)cc3)CC2)OC2OC(C)(C)OC21 (stereo not given)	2.13 µM	4.73 µM	4.03 µM	16.1 µM	3.17 µM	12.2 µM	3.53 µM	11.3 µM	4.46 µM	17.4 µM	4.24 µM	16.4 µM	3.91 µM	12.9 µM	3.35 µM	10.9 µM	4.39 µM	16.1 µM	3.83 µM	12.7 µM
O=C(NCC1CCCO1)c1ccc(NC2=C(Cl)C(=O)N(Cc3ccccc3)C2=O)cc1 (stereo not given)	3.36 µM	12.7 µM	23.9 µM	51.4 µM	6.4 µM	21.5 µM	19 µM	62.3 µM	20 µM	39.3 µM	2.93 µM	7.52 µM	16.7 µM	54.6 µM	17.1 µM	35 µM	14.6 µM	33.3 µM	17 µM	45.6 µM
O=[N+]([O-])c1cc([N+](=O)[O-])c(Nn2c3ccccc3c3ccccc32)c([N+](=O)[O-])c1		0.56 µM	0.317 µM	> 100 µM		2.81 µM	0.377 µM	11.8 µM and 3.97 µM	0.204 µM	0.92 µM	0.418 µM	25.4 µM and 21.2 µM	0.371 µM		0.305 µM	3.77 µM and 1.7 µM	0.216 µM	4.53 µM and 0.506 µM	0.312 µM	1.63 µM
Cc1cc2c(-c3nc4ccccn4c3N)c(O)c(O)cc2c(O)c1-c1c(C)cc2c(-c3nc4ccccn4c3N)c(O)c(O)cc2c1O	0.661 µM	> 25 µM	4.49 µM	> 25 µM	0.65 µM	2.29 µM	0.58 µM	> 25 µM	1.02 µM	> 25 µM	1.36 µM	> 25 µM	0.975 µM	> 25 µM	0.227 µM	> 25 µM	0.554 µM	1.66 µM	2.9 µM	> 25 µM
CC(=O)[C@H]1CCC/C=C/[C@@H]2C[C@H](O)C[C@H]2[C@H](O)/C=C/C(=O)O1	0.36 µM		0.527 µM	3.46 µM	4.93 µM	> 100 µM	1.05 µM	> 44.7 µM	0.237 µM	> 100 µM	0.803 µM	> 24 µM	0.982 µM	> 100 µM	0.75 µM	> 19.7 µM	0.163 µM	0.318 µM	0.332 µM	
Oc1c(Cl)cc(Cl)c2ccc(Cn3cc(-c4ccc(C(F)(F)F)cc4)nn3)nc12	1.25 µM	6.33 µM	19 µM	64.2 µM	1.9 µM	5.82 µM	1.42 µM	3.3 µM	1.74 µM	10.8 µM	1.41 µM	3.19 µM	2.75 µM	11.5 µM	12.1 µM	26.6 µM	3.07 µM	11.4 µM	1.23 µM	3.3 µM
Cc1cc(-c2cc(O)ccc2Cl)cc2nnc(Nc3ccc(OCCN4CCCC4)cc3)nc12	0.207 µM	0.442 µM	0.682 µM	1.61 µM	1.1 µM	2.59 µM	0.183 µM	0.36 µM	0.824 µM	2.22 µM	1.63 µM	3.57 µM	0.705 µM	1.56 µM	0.617 µM	1.32 µM	1.75 µM	3.37 µM	1.96 µM	3.91 µM
COc1cc(C2c3cc4c(cc3C(OC(=O)C[n+]3ccccc3)C3COC(=O)C23)OCO4)cc(OC)c1OC (stereo not given)	< 0.0203 µM	> 100 µM	< 0.0169 µM	> 100 µM	< 0.013 µM	2.74 µM	< 0.0171 µM	> 100 µM	1.33 µM	> 100 µM	< 0.0207 µM	> 100 µM	< 0.021 µM	> 100 µM	< 0.0168 µM	> 100 µM	< 0.01 µM	< 0.01 µM	> 100 µM	> 100 µM
